Test results reported in PMC10176470, “Engaging a Non-catalytic Cysteine Residue Drives Potent and Selective Inhibition of Caspase-6” (Journal of the American Chemical Society, 2023).
Like-named read-outs stand apart in the source and are kept apart here.

Tests used:
Type in all cases: cell-based
[1] = target: proteins of HEK293T cells transiently overexpressing caspase-6 (Homo sapiens, UniProt P05023); details: exp_ref Probe; protein ATP1A1 (P05023); analysis C6
[2] = target: T1, proteins of HEK293T cells transiently overexpressing caspase-6 (Homo sapiens, UniProt Q13642)
T1 sequence (Q13642 1-323): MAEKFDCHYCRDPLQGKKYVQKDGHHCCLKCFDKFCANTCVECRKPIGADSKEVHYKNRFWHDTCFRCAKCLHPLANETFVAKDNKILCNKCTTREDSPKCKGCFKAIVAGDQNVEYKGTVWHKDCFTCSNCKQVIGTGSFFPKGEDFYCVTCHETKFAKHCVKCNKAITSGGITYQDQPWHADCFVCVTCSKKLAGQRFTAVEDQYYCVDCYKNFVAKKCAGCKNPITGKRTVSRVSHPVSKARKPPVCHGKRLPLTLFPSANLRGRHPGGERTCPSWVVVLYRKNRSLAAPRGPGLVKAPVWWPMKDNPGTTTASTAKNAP

[3] = target: proteins of HEK293T cells transiently overexpressing caspase-6 (Homo sapiens, UniProt P11388); details: protein TOP2A (P11388)
[4] = target: proteins of HEK293T cells transiently overexpressing caspase-6 (Homo sapiens, UniProt Q06830); details: exp_ref Probe; protein PRDX1 (Q06830); analysis C6
[5] = target: proteins of HEK293T cells transiently overexpressing caspase-6 (Homo sapiens, UniProt P62633); details: exp_ref Probe; protein CNBP (P62633); analysis C6
[6] = target: proteins of HEK293T cells transiently overexpressing caspase-6 (Homo sapiens, UniProt P32119); details: exp_ref Probe; protein PRDX2 (P32119); analysis C6
[7] = target: proteins of HEK293T cells transiently overexpressing caspase-6 (Homo sapiens, UniProt Q02543); details: exp_ref Probe; protein RPL18A (Q02543); analysis C6
[8] = target: proteins of HEK293T cells transiently overexpressing caspase-6 (Homo sapiens, UniProt Q13347); details: protein EIF3I (Q13347); exp_ref Probe; analysis C6
[9] = target: proteins of HEK293T cells transiently overexpressing caspase-6 (Homo sapiens, UniProt P26639); details: exp_ref Probe; protein TARS (P26639); analysis C6
[10] = target: proteins of HEK293T cells transiently overexpressing caspase-6 (Homo sapiens, UniProt P27797); details: exp_ref Probe; protein CALR (P27797); analysis C6
[11] = target: proteins of HEK293T cells transiently overexpressing caspase-6 (Homo sapiens, UniProt P0DMV8); details: protein HSPA1A (P0DMV8)
[12] = target: proteins of HEK293T cells transiently overexpressing caspase-6 (Homo sapiens, UniProt P21964); details: Probe; protein COMT P21964
[13] = target: proteins of HEK293T cells transiently overexpressing caspase-6 (Homo sapiens, UniProt Q8TCD1); details: protein C18orf32 (Q8TCD1)
[14] = target: proteins of HEK293T cells transiently overexpressing caspase-6 (Homo sapiens, UniProt Q96SB4); details: protein SRPK1 (Q96SB4); exp_ref Probe; analysis C6
[15] = target: proteins of HEK293T cells transiently overexpressing caspase-6 (Homo sapiens, UniProt P11142); details: protein HSPA8 (P11142)
[16] = target: proteins of HEK293T cells transiently overexpressing caspase-6 (Homo sapiens, UniProt P31689); details: exp_ref Probe; protein DNAJA1 (P31689); analysis C6
[17] = target: proteins of HEK293T cells transiently overexpressing caspase-6 (Homo sapiens, UniProt Q9UEG4)
[18] = target: proteins of HEK293T cells transiently overexpressing caspase-6 (Homo sapiens, UniProt P40939); details: exp_ref Probe; protein HADHA (P40939); analysis C6
[19] = target: proteins of HEK293T cells transiently overexpressing caspase-6 (Homo sapiens, UniProt P29692); details: exp_ref Probe; protein EEF1D (P29692); analysis C6
[20] = target: proteins of HEK293T cells transiently overexpressing caspase-6 (Homo sapiens, UniProt Q15029); details: exp_ref Probe; protein EFTUD2 (Q15029); analysis C6
[21] = target: proteins of HEK293T cells transiently overexpressing caspase-6 (Homo sapiens, UniProt Q14247); details: exp_ref Probe; protein CTTN (Q14247); analysis C6
[22] = target: proteins of HEK293T cells transiently overexpressing caspase-6 (Homo sapiens, UniProt P06733); details: protein ENO1 (P06733)
proteins of HEK293T cells transiently overexpressing caspase-6 (Homo sapiens, UniProt P06733), sequence (P06733 whole entry): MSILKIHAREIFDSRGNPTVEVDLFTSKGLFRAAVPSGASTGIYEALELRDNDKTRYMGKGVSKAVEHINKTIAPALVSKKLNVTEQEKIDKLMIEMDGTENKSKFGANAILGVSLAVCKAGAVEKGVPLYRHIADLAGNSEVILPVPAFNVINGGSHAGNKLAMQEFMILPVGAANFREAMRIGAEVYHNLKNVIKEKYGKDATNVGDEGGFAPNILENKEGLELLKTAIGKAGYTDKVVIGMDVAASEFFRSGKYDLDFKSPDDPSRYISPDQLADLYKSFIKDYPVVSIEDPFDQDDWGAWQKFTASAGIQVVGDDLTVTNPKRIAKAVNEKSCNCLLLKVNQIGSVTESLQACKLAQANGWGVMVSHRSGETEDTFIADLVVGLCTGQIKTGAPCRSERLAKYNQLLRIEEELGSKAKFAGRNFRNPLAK

proteins of HEK293T cells transiently overexpressing caspase-6 (Homo sapiens, UniProt Q8TCD1), sequence (Q8TCD1 whole entry): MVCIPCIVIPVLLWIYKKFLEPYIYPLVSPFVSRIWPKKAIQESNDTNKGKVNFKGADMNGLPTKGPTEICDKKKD
proteins of HEK293T cells transiently overexpressing caspase-6 (Homo sapiens, UniProt P11142), sequence (P11142 whole entry): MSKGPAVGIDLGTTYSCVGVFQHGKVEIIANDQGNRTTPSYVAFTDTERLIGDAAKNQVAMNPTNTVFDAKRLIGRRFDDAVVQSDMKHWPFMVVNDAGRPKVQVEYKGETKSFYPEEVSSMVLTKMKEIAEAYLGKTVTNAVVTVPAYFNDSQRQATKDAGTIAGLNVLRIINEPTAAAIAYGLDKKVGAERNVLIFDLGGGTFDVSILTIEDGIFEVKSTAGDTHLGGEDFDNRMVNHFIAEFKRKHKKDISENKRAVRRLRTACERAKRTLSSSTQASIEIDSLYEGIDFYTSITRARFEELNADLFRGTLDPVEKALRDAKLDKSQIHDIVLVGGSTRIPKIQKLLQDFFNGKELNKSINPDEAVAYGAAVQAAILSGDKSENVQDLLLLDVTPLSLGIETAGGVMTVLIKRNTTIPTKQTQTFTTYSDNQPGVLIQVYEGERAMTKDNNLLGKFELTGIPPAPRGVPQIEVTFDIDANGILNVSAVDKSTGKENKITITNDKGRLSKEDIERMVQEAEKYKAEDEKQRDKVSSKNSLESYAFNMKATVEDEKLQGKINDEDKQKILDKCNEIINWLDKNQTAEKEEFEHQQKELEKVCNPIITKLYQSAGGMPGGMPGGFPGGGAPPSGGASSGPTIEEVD
proteins of HEK293T cells transiently overexpressing caspase-6 (Homo sapiens, UniProt Q9UEG4), sequence (Q9UEG4 whole entry): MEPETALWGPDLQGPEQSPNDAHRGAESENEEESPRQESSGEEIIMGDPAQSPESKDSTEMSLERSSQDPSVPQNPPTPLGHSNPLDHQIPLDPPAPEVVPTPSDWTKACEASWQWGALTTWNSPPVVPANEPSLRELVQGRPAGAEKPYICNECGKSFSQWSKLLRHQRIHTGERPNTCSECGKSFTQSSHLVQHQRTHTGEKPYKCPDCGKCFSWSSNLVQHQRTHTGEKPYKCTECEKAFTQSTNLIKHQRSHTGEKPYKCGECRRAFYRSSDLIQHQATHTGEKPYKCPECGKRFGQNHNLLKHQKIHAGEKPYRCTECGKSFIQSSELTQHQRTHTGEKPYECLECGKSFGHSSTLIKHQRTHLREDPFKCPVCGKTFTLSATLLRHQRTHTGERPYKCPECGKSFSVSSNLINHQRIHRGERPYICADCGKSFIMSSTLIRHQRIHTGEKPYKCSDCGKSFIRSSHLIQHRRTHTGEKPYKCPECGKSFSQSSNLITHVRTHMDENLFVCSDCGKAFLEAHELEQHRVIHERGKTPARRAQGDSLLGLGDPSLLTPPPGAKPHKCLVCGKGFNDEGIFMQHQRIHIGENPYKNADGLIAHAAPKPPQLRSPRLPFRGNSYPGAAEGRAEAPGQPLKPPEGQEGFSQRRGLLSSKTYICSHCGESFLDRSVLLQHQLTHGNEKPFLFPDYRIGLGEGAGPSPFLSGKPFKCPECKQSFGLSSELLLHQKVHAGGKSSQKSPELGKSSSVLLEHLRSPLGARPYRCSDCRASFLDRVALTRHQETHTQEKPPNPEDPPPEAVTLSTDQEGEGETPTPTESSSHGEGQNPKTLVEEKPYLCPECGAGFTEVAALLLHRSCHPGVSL
proteins of HEK293T cells transiently overexpressing caspase-6 (Homo sapiens, UniProt P0DMV8), sequence (P0DMV8 whole entry): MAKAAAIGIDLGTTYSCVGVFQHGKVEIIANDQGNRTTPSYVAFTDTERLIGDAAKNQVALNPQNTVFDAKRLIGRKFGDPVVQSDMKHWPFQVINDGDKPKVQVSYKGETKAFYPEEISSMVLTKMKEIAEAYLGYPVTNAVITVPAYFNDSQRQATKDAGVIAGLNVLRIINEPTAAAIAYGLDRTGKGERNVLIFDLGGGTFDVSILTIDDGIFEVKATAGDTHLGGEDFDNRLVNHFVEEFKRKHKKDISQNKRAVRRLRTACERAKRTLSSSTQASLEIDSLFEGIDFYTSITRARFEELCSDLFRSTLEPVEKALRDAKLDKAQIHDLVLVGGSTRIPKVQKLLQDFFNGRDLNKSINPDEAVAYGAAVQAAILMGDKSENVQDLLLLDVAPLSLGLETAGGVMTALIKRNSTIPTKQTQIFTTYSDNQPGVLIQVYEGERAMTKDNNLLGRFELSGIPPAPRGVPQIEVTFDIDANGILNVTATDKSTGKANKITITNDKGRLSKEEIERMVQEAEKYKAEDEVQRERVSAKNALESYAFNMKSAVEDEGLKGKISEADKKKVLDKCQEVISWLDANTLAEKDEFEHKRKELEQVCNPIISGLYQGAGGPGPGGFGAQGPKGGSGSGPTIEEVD
proteins of HEK293T cells transiently overexpressing caspase-6 (Homo sapiens, UniProt P11388), sequence (P11388 whole entry): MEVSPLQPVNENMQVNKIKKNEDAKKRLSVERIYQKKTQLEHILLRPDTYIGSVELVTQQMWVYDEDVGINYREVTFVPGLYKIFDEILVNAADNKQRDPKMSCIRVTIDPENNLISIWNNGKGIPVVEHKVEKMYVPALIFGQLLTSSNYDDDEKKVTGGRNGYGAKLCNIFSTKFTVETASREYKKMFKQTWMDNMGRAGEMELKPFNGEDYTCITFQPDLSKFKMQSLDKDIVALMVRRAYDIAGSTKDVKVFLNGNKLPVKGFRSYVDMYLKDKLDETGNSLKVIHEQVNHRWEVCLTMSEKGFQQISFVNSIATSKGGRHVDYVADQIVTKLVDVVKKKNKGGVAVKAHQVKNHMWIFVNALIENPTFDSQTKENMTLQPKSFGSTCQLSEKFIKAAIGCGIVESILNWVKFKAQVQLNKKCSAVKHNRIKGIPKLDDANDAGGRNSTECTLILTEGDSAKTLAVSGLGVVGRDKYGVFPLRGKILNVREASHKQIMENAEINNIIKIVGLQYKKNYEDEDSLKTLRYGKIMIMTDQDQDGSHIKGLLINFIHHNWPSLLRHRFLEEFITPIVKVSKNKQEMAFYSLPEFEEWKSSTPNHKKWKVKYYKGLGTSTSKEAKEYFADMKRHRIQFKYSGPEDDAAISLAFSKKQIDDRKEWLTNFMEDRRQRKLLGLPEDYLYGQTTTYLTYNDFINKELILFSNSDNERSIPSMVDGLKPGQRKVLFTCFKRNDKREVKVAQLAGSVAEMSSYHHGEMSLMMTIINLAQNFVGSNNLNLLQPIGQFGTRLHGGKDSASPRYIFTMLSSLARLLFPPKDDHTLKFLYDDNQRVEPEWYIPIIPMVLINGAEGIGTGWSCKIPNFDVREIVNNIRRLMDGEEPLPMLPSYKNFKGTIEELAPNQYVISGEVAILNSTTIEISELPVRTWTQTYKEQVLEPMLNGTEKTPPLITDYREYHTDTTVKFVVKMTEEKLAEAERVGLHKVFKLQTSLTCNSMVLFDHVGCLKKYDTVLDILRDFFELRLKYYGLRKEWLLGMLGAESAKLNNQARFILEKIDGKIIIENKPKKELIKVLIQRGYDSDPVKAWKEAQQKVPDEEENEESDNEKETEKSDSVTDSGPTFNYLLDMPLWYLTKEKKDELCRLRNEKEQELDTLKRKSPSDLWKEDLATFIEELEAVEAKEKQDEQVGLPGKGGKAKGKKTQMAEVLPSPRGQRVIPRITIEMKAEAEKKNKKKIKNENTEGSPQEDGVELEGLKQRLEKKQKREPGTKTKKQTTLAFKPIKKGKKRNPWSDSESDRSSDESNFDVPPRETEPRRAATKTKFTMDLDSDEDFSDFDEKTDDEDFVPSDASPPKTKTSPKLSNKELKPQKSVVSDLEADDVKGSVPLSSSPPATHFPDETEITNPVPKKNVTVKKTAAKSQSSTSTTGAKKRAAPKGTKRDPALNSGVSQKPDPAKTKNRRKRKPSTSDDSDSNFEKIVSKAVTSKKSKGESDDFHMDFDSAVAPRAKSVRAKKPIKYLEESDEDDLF
proteins of HEK293T cells transiently overexpressing caspase-6 (Homo sapiens, UniProt P31689), sequence (P31689 whole entry): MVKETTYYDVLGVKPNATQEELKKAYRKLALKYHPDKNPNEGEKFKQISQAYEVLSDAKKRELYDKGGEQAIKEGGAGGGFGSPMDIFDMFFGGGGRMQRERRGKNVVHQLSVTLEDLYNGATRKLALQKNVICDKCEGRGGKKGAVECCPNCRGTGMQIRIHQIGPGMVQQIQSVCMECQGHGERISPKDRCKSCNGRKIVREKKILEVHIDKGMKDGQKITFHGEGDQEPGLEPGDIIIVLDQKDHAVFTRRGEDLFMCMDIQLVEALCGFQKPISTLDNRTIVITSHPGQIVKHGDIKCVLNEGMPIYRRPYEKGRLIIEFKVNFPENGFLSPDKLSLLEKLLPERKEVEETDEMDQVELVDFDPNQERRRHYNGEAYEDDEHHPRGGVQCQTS
proteins of HEK293T cells transiently overexpressing caspase-6 (Homo sapiens, UniProt Q06830), sequence (Q06830 whole entry): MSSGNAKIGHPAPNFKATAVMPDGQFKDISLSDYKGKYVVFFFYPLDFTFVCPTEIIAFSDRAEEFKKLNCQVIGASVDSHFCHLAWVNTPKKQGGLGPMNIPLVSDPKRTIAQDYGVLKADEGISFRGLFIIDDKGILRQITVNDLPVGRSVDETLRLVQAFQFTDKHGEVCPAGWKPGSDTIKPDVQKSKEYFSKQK
proteins of HEK293T cells transiently overexpressing caspase-6 (Homo sapiens, UniProt P62633), sequence (P62633 whole entry): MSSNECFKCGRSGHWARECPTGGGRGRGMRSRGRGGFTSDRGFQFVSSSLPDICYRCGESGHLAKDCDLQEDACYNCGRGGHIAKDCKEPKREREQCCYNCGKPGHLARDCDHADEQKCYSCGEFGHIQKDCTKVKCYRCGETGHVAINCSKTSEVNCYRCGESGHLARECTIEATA

## C#CCOc1ccc([C@@H]2C[C@@H](C(=O)Nc3ccc(OC(F)(F)F)cc3)CN(S(=O)(=O)C=C)C2)cc1 (relative stereo) [13-t]
[1]
  enrich.exp.med: -0.3639
[2]; Probe, protein FHL1 Q13642
  enrich.exp.med: -0.95
[2]; protein FHL1 (Q13642)
  enrich.exp.med.lin: 0.5176
  enrich.exp.med.log2: -0.95
[3]
  enrich.exp.med.lin: 3.929
  enrich.exp.med.log2: 1.974
[3]; exp_ref Probe, analysis C6
  enrich.exp.med: 1.974
[4]
  enrich.exp.med: -0.1545
[5]
  enrich.exp.med: -0.4177
[6]
  enrich.exp.med: 0.2933
[7]
  enrich.exp.med: -0.1551
[8]
  enrich.exp.med: 1.576
[9]
  enrich.exp.med: 0.1344
[10]
  enrich.exp.med: 0.5687
[11]; exp_ref Probe, analysis C6
  enrich.exp.med: 0.4797
[11]
  enrich.exp.med.lin: 1.394
  enrich.exp.med.log2: 0.4797
[12]
  enrich.exp.med: -3.436
[13]
  enrich.exp.med.lin: 5.403
  enrich.exp.med.log2: 2.434
[13]; Expt Probe, analysis C6
  enrich.exp.med.lin: 5.403
  enrich.exp.med.log2: 2.434
[13]; exp_ref Probe, analysis C6
  enrich.exp.med: 2.434
[14]
  enrich.exp.med: 1.262
[15]; exp_ref Probe, analysis C6
  enrich.exp.med: 0.3873
[15]
  enrich.exp.med.lin: 1.308
  enrich.exp.med.log2: 0.3873
[16]
  enrich.exp.med: 0.404
[17]; Probe, protein ZNF629 Q9UEG4
  enrich.exp.med: -2.2193
[17]; protein ZNF629 (Q9UEG4)
  enrich.exp.med.lin: 0.2147
  enrich.exp.med.log2: -2.2193
[18]
  enrich.exp.med: 0.4567
[19]
  enrich.exp.med: 0.2193
[20]
  enrich.exp.med: 0.4056
[21]
  enrich.exp.med: -0.3871
[22]; exp_ref Probe, analysis C6
  enrich.exp.med: 0.5104
[22]
  enrich.exp.med.lin: 1.424
  enrich.exp.med.log2: 0.5104
